# Reference: the supplement of paper PMC11208160
# Test: recombinant UMI read abundance after kanamycin selection (control-corrected) (log10(CPM+1)); higher = more efficient recombination; extreme values may be limits of the assay; sequences stand for … in AGTGCAGAGAAAATCGGCCAGTTTTCTCTGCCTGCAGTCCGCATGCCGTGGGACCCCTTGGGTTCTAACCTGTTGCCTAGATTTATGCAGCGGACTGCCTTTCTCCCAAAGTGATAAACCGG…AGGTTGGTTTCACT; site = the 11-nt donor
# Method: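 Pooled E. coli donor-specificity screen for the IS621 bridge recombinase. Each library member carries a reprogrammed 11-nt donor and a full-length LE bridge RNA expressed in cis from the natural promoter, with a paired donor-binding loop (8-nt LDG + 4-nt RDG) and a target-binding loop fixed to T5. It is co-electroporated with a T5 target plasmid; recombinase is induced with 0.07 mM IPTG and recombinants are selected on kanamycin. UMIs are counted as CPM, averaged over two biological replicates and corrected by the unselected control. Molecule = full bridge RNA written as DNA, built from the T5 scaffold: LDG = donor specificity nt 1-8, RDG = reverse complement of nt 8-11.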
# 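Further: IS621 bridge recombinase in Escherichia coli cells against a fixed T5 target plasmid.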
row,Sequence,recombinant UMI read abundance (log10)
1,AATGTAGCATGGACCGGTTTTCCCGGTAATCCGTATTTGCT (site AATGTAACTAG),0
2,AATGTAGCATGGACCGGTTTTCCCGGTAATCCGTATTTGCT (site AATGTACCTAG),0
3,AATGTAGCATGGACCGGTTTTCCCGGTAATCCGTATTTGCT (site AATGTAGCTAG),1.55
4,AATGTAGCATGGACCGGTTTTCCCGGTAATCCGTATTTGCT (site AATGTATCTAG),0.516
5,AATGTATCATGGACCGGTTTTCCCGGTAATCCGTATTTGAC (site AATGTATCTGT),3.11
6,AATGTATCATGGACCGGTTTTCCCGGTAATCCGTATTTGAC (site AATGTCTCTGT),0
7,AATGTATCATGGACCGGTTTTCCCGGTAATCCGTATTTGAC (site AATGTGTCTGT),0
8,AATGTATCATGGACCGGTTTTCCCGGTAATCCGTATTTGAC (site AATGTTTCTGT),0
9,AATGTCGCATGGACCGGTTTTCCCGGTAATCCGTATTTGGT (site AATGTCGCTAC),1.19
10,AATGTGCCATGGACCGGTTTTCCCGGTAATCCGTATTTGAC (site AATGTGACTGT),0
11,AATGTGCCATGGACCGGTTTTCCCGGTAATCCGTATTTGAC (site AATGTGCCTGT),0
12,AATGTGCCATGGACCGGTTTTCCCGGTAATCCGTATTTGAC (site AATGTGGCTGT),0
13,AATGTGCCATGGACCGGTTTTCCCGGTAATCCGTATTTGAC (site AATGTGTCTGT),0
14,AATGTGCCATGGACCGGTTTTCCCGGTAATCCGTATTTGCT (site AATGTGCCTAG),0.0116
15,AATGTGTCATGGACCGGTTTTCCCGGTAATCCGTATTTGCC (site AATGTGTCTGA),0
16,AATGTGTCATGGACCGGTTTTCCCGGTAATCCGTATTTGCC (site AATGTGTCTGC),0
17,AATGTGTCATGGACCGGTTTTCCCGGTAATCCGTATTTGCC (site AATGTGTCTGG),2.81
18,AATGTGTCATGGACCGGTTTTCCCGGTAATCCGTATTTGCC (site AATGTGTCTGT),2.16
19,AATGTTACATGGACCGGTTTTCCCGGTAATCCGTATTTGCT (site AATGTAACTAG),1.05
20,AATGTTACATGGACCGGTTTTCCCGGTAATCCGTATTTGCT (site AATGTCACTAG),1.13
21,AATGTTACATGGACCGGTTTTCCCGGTAATCCGTATTTGCT (site AATGTGACTAG),0.00476
22,AATGTTACATGGACCGGTTTTCCCGGTAATCCGTATTTGCT (site AATGTTACTAG),2.3

row,Sequence,recombinant UMI read abundance (log10)
1,AATTAAGCATGGACCGGTTTTCCCGGTAATCCGTATTTGGA (site AATTAAGCTTC),0.894
2,AATTAAGCATGGACCGGTTTTCCCGGTAATCCGTATTTGGA (site AATTACGCTTC),0.395
3,AATTAAGCATGGACCGGTTTTCCCGGTAATCCGTATTTGGA (site AATTAGGCTTC),0.648
4,AATTAAGCATGGACCGGTTTTCCCGGTAATCCGTATTTGGA (site AATTATGCTTC),0.412
5,AATTATCCATGGACCGGTTTTCCCGGTAATCCGTATTTGCT (site AATTATCCTAG),0.673
6,AATTATCCATGGACCGGTTTTCCCGGTAATCCGTATTTGCT (site CATTATCCTAG),0.041
7,AATTATCCATGGACCGGTTTTCCCGGTAATCCGTATTTGCT (site GATTATCCTAG),0.232
8,AATTATCCATGGACCGGTTTTCCCGGTAATCCGTATTTGCT (site TATTATCCTAG),0.201
9,AATTATGCATGGACCGGTTTTCCCGGTAATCCGTATTTGGC (site AATTATGCTAC),0.00687
10,AATTATGCATGGACCGGTTTTCCCGGTAATCCGTATTTGGC (site AATTATGCTCC),0.0199
11,AATTATGCATGGACCGGTTTTCCCGGTAATCCGTATTTGGC (site AATTATGCTGC),1.33
12,AATTATGCATGGACCGGTTTTCCCGGTAATCCGTATTTGGC (site AATTATGCTTC),0.332
13,AATTCTTCATGGACCGGTTTTCCCGGTAATCCGTATTTGTA (site AATTCTTCTTA),1.04
14,AATTTACCATGGACCGGTTTTCCCGGTAATCCGTATTTGGC (site AATTTACCTGC),0
15,ACAAAGACATGGACCGGTTTTCCCGGTAATCCGTATTTGAG (site ACAAAGACTCT),2.49
16,ACAAGTTCATGGACCGGTTTTCCCGGTAATCCGTATTTGTG (site ACAAGTTCTCA),2.42
17,ACAATAACATGGACCGGTTTTCCCGGTAATCCGTATTTGCA (site ACAATAACTTG),2.65
18,ACAATAACATGGACCGGTTTTCCCGGTAATCCGTATTTGCA (site ACAGTATCTTG),1.03
19,ACAATATCATGGACCGGTTTTCCCGGTAATCCGTATTTGGA (site ACAATATCTTC),2.07
20,ACAATATCATGGACCGGTTTTCCCGGTAATCCGTATTTGGA (site ACAGTATCTTG),0
21,ACACACCCATGGACCGGTTTTCCCGGTAATCCGTATTTGAC (site ACACAACCTGT),0
22,ACACACCCATGGACCGGTTTTCCCGGTAATCCGTATTTGAC (site ACACACCCTGT),0.957

row,Sequence,recombinant UMI read abundance (log10)
1,ACACACCCATGGACCGGTTTTCCCGGTAATCCGTATTTGAC (site ACACAGCCTGT),0
2,ACACACCCATGGACCGGTTTTCCCGGTAATCCGTATTTGAC (site ACACATCCTGT),0.471
3,ACACATACATGGACCGGTTTTCCCGGTAATCCGTATTTGAC (site ACACATACTGT),2.71
4,ACACATACATGGACCGGTTTTCCCGGTAATCCGTATTTGAC (site ACACATCCTGT),0
5,ACACATACATGGACCGGTTTTCCCGGTAATCCGTATTTGAC (site ACACATGCTGT),1.74
6,ACACATACATGGACCGGTTTTCCCGGTAATCCGTATTTGAC (site ACACATTCTGT),0.554
7,ACACATCCATGGACCGGTTTTCCCGGTAATCCGTATTTGCC (site ACACATCCTGA),1.25
8,ACACATCCATGGACCGGTTTTCCCGGTAATCCGTATTTGCC (site ACACATCCTGC),0
9,ACACATCCATGGACCGGTTTTCCCGGTAATCCGTATTTGCC (site ACACATCCTGG),1.79
10,ACACATCCATGGACCGGTTTTCCCGGTAATCCGTATTTGCC (site ACACATCCTGT),0
11,ACACATCCATGGACCGGTTTTCCCGGTAATCCGTATTTGTC (site ACACATCCTGA),1.53
12,ACACATCCATGGACCGGTTTTCCCGGTAATCCGTATTTGTC (site ACACATCCTGC),0.011
13,ACACATCCATGGACCGGTTTTCCCGGTAATCCGTATTTGTC (site ACACATCCTGG),0
14,ACACATCCATGGACCGGTTTTCCCGGTAATCCGTATTTGTC (site ACACATCCTGT),0.239
15,ACACCTGCATGGACCGGTTTTCCCGGTAATCCGTATTTGGG (site ACACCTGCTCC),0.734
16,ACACGAACATGGACCGGTTTTCCCGGTAATCCGTATTTGCC (site ACACGAACTGA),1.32
17,ACACGAACATGGACCGGTTTTCCCGGTAATCCGTATTTGCC (site ACACGAACTGC),0
18,ACACGAACATGGACCGGTTTTCCCGGTAATCCGTATTTGCC (site ACACGAACTGG),2.57
19,ACACGAACATGGACCGGTTTTCCCGGTAATCCGTATTTGCC (site ACACGAACTGT),1.59
20,ACACGAACATGGACCGGTTTTCCCGGTAATCCGTATTTGTT (site ACACGAACTAA),2.08
21,ACACGAACATGGACCGGTTTTCCCGGTAATCCGTATTTGTT (site ACACGAACTCA),0.359
